Literature values as cited in article PMC9851200, “Multiparameter phenotypic screening for endogenous TFEB and TFE3 translocation identifies novel chemical series modulating lysosome function” (Autophagy, 2022).

What was measured:
Parameters in all cases: method as in original PKIS2 published data
[1] = target: kinases (KINOMEscan panel) (Homo sapiens, UniProt P09619); conditions: Published KINOMEscan; ref original PKIS2 published data; cited from earlier work
[2] = target: T1, kinases (KINOMEscan panel) (Homo sapiens, UniProt P36888); conditions: Published KINOMEscan, ref original PKIS2 published data, cited from earlier work
T1 sequence (P36888 27-993): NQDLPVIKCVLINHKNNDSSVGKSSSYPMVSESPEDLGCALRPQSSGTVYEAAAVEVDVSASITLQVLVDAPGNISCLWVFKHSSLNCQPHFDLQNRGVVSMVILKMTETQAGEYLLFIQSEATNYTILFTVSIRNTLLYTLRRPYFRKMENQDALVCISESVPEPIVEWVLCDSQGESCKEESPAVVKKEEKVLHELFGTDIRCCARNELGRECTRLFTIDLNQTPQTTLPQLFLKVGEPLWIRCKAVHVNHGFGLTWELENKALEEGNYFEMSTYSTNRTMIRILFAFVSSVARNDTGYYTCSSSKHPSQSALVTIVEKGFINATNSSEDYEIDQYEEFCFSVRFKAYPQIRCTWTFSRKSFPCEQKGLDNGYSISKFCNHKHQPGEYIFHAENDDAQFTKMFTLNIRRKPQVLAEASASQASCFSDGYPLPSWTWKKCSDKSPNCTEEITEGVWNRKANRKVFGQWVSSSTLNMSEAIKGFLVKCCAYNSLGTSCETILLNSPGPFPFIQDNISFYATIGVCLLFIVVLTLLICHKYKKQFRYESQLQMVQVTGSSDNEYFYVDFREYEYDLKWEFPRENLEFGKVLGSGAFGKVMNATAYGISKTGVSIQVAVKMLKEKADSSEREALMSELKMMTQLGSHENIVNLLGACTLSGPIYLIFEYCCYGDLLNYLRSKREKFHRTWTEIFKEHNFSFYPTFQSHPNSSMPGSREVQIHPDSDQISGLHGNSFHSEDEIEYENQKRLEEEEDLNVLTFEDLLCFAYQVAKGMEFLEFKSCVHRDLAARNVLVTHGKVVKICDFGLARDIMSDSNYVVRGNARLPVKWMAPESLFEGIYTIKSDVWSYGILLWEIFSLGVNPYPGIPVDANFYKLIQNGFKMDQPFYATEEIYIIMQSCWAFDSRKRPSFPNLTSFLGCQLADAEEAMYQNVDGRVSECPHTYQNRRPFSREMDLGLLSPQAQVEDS

[3] = target: kinases (KINOMEscan panel) (Homo sapiens, UniProt P49761); conditions: CLK3; Published KINOMEscan; ref original PKIS2 published data; cited from earlier work
[4] = target: kinases (KINOMEscan panel) (Homo sapiens, UniProt P51617); conditions: kinase IRAK1; Published KINOMEscan; ref original PKIS2 published data; cited from earlier work
[5] = target: kinases (KINOMEscan panel) (Homo sapiens, UniProt Q00532); conditions: CDKL1; Published KINOMEscan; ref original PKIS2 published data; cited from earlier work
[6] = target: kinases (KINOMEscan panel) (Homo sapiens, UniProt Q06187); conditions: kinase BTK; Published KINOMEscan; ref original PKIS2 published data; cited from earlier work
[7] = target: kinases (KINOMEscan panel) (Homo sapiens, UniProt Q96RR4); conditions: CAMKK2; Published KINOMEscan; ref original PKIS2 published data; cited from earlier work
[8] = target: T2, kinases (KINOMEscan panel) (Homo sapiens, UniProt Q9Y616); conditions: IRAK3; Published KINOMEscan; ref original PKIS2 published data; cited from earlier work
T2 sequence (Q9Y616 1-596): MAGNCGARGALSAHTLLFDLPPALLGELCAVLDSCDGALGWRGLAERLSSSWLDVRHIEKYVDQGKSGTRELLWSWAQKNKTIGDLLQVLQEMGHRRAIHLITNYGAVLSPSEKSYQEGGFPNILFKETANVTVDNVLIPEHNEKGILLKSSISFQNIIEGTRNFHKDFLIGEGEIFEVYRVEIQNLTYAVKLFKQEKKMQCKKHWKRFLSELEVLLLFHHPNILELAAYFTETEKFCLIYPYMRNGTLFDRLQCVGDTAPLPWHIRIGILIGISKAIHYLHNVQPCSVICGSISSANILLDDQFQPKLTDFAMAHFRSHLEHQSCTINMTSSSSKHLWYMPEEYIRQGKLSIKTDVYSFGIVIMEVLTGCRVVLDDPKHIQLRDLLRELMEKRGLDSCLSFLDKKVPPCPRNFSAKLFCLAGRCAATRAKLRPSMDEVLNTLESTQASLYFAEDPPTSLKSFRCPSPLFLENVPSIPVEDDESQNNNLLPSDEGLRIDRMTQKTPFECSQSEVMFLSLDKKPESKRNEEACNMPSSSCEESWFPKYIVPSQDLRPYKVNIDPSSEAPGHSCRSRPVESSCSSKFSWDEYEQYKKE

Sequence of kinases (KINOMEscan panel) (Homo sapiens, UniProt P49761) (P49761 whole entry): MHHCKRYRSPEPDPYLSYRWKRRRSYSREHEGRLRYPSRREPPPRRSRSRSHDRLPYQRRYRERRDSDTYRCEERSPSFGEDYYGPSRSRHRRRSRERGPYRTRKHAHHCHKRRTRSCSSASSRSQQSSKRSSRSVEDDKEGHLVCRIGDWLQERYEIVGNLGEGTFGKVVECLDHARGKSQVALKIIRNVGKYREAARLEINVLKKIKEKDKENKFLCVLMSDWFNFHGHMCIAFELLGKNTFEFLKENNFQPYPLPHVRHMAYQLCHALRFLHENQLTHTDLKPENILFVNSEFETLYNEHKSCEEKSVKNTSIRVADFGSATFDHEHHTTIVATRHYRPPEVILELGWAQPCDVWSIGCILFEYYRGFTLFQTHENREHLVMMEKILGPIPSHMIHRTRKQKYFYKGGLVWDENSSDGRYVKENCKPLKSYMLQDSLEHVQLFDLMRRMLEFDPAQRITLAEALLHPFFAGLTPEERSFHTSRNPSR
Sequence of kinases (KINOMEscan panel) (Homo sapiens, UniProt Q06187) (Q06187 whole entry): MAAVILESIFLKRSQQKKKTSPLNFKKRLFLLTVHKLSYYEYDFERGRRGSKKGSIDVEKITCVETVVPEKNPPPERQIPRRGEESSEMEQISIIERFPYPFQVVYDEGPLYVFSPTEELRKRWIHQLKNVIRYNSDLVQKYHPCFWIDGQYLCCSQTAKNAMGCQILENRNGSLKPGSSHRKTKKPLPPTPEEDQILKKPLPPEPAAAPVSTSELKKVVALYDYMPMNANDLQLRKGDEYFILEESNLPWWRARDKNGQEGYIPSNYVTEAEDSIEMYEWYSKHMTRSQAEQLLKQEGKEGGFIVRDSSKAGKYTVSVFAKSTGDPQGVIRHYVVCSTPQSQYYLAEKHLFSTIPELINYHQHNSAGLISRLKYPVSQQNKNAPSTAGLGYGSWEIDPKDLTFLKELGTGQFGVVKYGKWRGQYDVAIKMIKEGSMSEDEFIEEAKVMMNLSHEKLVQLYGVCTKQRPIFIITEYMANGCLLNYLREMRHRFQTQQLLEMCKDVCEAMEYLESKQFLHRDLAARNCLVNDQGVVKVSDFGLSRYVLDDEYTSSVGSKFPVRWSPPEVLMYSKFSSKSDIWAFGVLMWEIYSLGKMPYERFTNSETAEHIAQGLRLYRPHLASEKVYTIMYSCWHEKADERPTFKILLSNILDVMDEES
Sequence of kinases (KINOMEscan panel) (Homo sapiens, UniProt P51617) (P51617 whole entry): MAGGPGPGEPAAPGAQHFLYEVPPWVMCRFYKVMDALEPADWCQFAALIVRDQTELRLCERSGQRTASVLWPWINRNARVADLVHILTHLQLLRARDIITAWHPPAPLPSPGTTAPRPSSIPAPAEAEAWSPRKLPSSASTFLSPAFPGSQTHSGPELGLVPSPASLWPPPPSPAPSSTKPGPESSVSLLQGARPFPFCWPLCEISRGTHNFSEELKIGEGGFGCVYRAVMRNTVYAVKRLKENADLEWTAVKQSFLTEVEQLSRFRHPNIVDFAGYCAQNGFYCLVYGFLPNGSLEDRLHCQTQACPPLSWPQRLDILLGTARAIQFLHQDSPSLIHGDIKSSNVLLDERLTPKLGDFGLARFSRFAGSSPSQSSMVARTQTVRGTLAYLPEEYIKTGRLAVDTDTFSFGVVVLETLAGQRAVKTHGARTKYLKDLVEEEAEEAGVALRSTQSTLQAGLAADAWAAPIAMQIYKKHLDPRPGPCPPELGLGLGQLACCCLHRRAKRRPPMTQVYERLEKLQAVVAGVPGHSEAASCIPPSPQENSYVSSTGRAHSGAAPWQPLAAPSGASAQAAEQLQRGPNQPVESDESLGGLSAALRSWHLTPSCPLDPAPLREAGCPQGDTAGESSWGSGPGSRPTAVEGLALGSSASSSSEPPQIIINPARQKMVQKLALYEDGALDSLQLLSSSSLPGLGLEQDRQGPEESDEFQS
Sequence of kinases (KINOMEscan panel) (Homo sapiens, UniProt Q00532) (Q00532 whole entry): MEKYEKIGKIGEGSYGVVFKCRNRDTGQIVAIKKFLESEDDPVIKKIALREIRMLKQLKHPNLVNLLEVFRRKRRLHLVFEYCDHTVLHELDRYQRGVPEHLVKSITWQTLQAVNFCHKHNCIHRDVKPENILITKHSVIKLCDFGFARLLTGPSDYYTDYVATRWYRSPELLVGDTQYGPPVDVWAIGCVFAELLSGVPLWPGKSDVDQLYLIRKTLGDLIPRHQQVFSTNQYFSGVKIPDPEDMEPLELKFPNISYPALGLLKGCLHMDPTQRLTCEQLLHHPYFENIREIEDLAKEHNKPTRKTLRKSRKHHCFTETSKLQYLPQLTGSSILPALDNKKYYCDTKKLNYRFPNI
Sequence of kinases (KINOMEscan panel) (Homo sapiens, UniProt Q96RR4) (Q96RR4 whole entry): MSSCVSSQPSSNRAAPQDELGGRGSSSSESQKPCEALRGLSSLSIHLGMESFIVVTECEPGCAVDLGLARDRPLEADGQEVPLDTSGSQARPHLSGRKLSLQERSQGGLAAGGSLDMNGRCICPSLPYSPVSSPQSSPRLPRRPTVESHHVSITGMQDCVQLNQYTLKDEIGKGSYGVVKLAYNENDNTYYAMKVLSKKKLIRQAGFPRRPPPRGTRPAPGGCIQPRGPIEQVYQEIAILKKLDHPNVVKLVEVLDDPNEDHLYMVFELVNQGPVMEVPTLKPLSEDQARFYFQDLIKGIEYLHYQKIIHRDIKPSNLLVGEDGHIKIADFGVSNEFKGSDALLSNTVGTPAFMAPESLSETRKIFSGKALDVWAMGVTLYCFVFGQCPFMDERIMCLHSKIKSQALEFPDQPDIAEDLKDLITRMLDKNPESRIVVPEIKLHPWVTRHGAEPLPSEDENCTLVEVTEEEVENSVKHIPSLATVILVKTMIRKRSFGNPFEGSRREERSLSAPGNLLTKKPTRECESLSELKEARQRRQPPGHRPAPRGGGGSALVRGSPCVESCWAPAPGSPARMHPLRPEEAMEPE
Sequence of kinases (KINOMEscan panel) (Homo sapiens, UniProt P09619) (P09619 33-1106): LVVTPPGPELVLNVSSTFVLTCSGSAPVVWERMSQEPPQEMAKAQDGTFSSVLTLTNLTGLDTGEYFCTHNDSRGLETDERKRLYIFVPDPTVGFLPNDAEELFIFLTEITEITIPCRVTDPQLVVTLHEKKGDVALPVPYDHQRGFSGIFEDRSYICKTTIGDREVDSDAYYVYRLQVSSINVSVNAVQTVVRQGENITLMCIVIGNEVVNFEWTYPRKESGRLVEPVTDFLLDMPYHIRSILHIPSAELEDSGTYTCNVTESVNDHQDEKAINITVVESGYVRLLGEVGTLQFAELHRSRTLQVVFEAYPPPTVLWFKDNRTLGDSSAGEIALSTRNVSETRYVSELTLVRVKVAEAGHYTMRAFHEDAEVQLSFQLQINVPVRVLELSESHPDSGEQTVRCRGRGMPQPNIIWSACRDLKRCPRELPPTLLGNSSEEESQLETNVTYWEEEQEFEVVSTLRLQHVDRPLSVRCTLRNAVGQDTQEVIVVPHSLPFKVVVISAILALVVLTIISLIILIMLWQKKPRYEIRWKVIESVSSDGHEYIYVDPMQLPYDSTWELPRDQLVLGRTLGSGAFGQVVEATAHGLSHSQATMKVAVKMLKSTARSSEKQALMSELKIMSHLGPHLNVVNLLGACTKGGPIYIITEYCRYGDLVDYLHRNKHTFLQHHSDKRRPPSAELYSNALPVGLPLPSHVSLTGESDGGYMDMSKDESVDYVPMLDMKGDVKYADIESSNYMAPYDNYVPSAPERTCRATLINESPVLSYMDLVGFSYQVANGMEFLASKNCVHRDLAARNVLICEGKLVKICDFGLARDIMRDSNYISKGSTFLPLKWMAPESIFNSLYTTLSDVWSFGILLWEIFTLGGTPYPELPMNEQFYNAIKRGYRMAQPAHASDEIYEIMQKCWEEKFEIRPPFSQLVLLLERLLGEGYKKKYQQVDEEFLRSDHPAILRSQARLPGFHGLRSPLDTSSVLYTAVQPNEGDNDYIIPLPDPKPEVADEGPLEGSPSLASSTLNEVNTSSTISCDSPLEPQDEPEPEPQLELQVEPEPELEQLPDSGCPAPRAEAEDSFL

Compound: Cc1cccc(-c2nc(Nc3ccncc3)c3ccccc3n2)n1 [NK215]
- KINOMEscan PDGFRB [1]: 3
- KINOMEscan FLT3 ([2]; FLT3): 0
- KINOMEscan FLT3-autoinhibited ([2]; kinase FLT3-autoinhibited): 0
- KINOMEscan CLK3 [3]: 31
- KINOMEscan IRAK1 [4]: 0
- KINOMEscan CDKL1 [5]: 47
- KINOMEscan BTK [6]: 0
- KINOMEscan CAMKK2 [7]: 7
- KINOMEscan IRAK3 [8]: 21
